Results: patent US9777005B2 (Takeda Pharmaceutical Company Limited, priority 2012, dated 2017)

Molecular target: T1, human M1 receptor (hCHRM1) (Homo sapiens, UniProt P11229)
T1 construct: expressed in transfected cells; host or cells: CHO-K1
T1 sequence (P11229 1-460): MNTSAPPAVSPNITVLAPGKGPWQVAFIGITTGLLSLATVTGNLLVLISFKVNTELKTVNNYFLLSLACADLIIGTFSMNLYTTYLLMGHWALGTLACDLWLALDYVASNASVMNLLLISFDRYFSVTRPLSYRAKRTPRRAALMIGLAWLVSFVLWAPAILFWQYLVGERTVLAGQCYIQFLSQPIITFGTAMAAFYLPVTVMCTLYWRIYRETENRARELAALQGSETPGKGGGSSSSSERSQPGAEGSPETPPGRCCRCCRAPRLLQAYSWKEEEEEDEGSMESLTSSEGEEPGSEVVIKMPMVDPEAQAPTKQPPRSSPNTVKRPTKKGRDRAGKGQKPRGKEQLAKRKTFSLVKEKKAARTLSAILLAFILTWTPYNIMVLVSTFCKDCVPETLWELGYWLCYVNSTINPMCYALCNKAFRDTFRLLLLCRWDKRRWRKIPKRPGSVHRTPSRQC
Assay: Measurement of M1 receptor positive allosteric modulator (M1PAM) activity, calcium fluorescence (FLIPRtetra) in CHO-K1 cells in the presence of acetylcholine at EC20
Assay type: cell-based
Conditions: in the presence of acetylcholine at EC20 (final 0.6 nM), CHO-K1 cells expressing hCHRM1; for EC50: inflection point of M1PAM activity, read-out: IP value; for activity (%) at 10 μM: test compound 10 μM
Method in brief: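 CHO-K1 cells expressing human M1 were loaded with Fluo-4 AM, and compound was added with acetylcholine at EC20 (final 0.6 nM). Calcium fluorescence was read on FLIPRtetra for 1 min. Activity was normalized to 1 μM acetylcholine (100%) and DMSO (0%), and the curve inflection point was reported as IP.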

EC50 | activity (%) at 10 μM | SMILES
30 nM | 102% | CNC(=O)c1ccc(CN2Cc3ccnc(Oc4ccc(C(F)(F)F)cc4F)c3C2=O)cc1F [Example 435, 2-fluoro-4-((4-(2-fluoro-4-(trifluoromethyl)phenoxy)-3-oxo-1,3-dihydro-2H-pyrrolo[3,4-c]pyridin-2-yl)methyl)-N-methylbenzamide]
78 nM | 98% | CNC(=O)c1ccc(CN2Cc3ccnc(Oc4ccc(C)cc4F)c3C2=O)cc1F [Example 437, 2-fluoro-4-((4-(2-fluoro-4-methylphenoxy)-3-oxo-1,3-dihydro-2H-pyrrolo[3,4-c]pyridin-2-yl)methyl)-N-methylbenzamide]
14 nM | 101% | NC(=O)c1ccc(CN2Cc3ccnc(Oc4ccc(C(F)(F)F)cc4F)c3C2=O)cc1F [Example 438, 2-fluoro-4-((4-(2-fluoro-4-(trifluoromethyl)phenoxy)-3-oxo-1,3-dihydro-2H-pyrrolo[3,4-c]pyridin-2-yl)methyl)benzamide]
13 nM | 96% | CNC(=O)c1ccc(CN2Cc3cccc(Oc4ccc(C(F)(F)F)cc4F)c3C2=O)cc1 [Example 439, 4-((7-(2-fluoro-4-(trifluoromethyl)phenoxy)-1-oxo-1,3-dihydro-2H-isoindol-2-yl)methyl)-N-methylbenzamide]
70 nM | 100% | Cc1ccc(Oc2nccc3c2C(=O)N(Cc2ccc(C(N)=O)c(F)c2)C3)c(F)c1 [Example 440, 2-fluoro-4-((4-(2-fluoro-4-methylphenoxy)-3-oxo-1,3-dihydro-2H-pyrrolo[3,4-c]pyridin-2-yl)methyl)benzamide]
44 nM | 100% | CCNC(=O)c1ccc(CN2Cc3ccnc(Oc4ccc(C)cc4F)c3C2=O)c(F)c1 [Example 441, N-ethyl-3-fluoro-4-((4-(2-fluoro-4-methylphenoxy)-3-oxo-1,3-dihydro-2H-pyrrolo[3,4-c]pyridin-2-yl)methyl)benzamide]
31 nM | 101% | CCc1ccc(Oc2nccc3c2C(=O)N(Cc2ccc(C(=O)NC)c(F)c2)C3)c(F)c1 [Example 443]
17 nM | 100% | CCc1ccc(Oc2nccc3c2C(=O)N(Cc2ccc(C(=O)NC)cc2)C3)c(F)c1 [Example 444, 4-((4-(4-ethyl-2-fluorophenoxy)-3-oxo-1,3-dihydro-2H-pyrrolo[3,4-c]pyridin-2-yl)methyl)-N-methylbenzamide]
26 nM | 107% | NC(=O)c1ccc(CN2Cc3ccnc(Oc4ccc(C5CC5)cc4F)c3C2=O)cc1F [Example 446, 4-((4-(4-cyclopropyl-2-fluorophenoxy)-3-oxo-1,3-dihydro-2H-pyrrolo[3,4-c]pyridin-2-yl)methyl)-2-fluorobenzamide]
6.1 nM | 102% | NC(=O)c1ccc(CN2Cc3ccnc(Oc4ccc(C5CC5)cc4F)c3C2=O)cc1 [Example 448, 4-((4-(4-cyclopropyl-2-fluorophenoxy)-3-oxo-1,3-dihydro-2H-pyrrolo[3,4-c]pyridin-2-yl)methyl)benzamide]
45 nM | 102% | CCCc1ccc(Oc2nccc3c2C(=O)N(Cc2ccc(C(N)=O)c(F)c2)C3)c(F)c1 [Example 452, 2-fluoro-4-((4-(2-fluoro-4-propylphenoxy)-3-oxo-1,3-dihydro-2H-pyrrolo[3,4-c]pyridin-2-yl)methyl)benzamide]
30 nM | 86% | CNC(=O)c1ccc(CN2Cc3ccnc(Oc4ccc(C5CC5)cc4F)c3C2=O)cn1 [Example 454, 5-((4-(4-cyclopropyl-2-fluorophenoxy)-3-oxo-1,3-dihydro-2H-pyrrolo[3,4-c]pyridin-2-yl)methyl)-N-methylpyridine-2-carboxamide]
60 nM | 86% | CCCc1ccc(Oc2nccc3c2C(=O)N(Cc2ccc(C(=O)NC)nc2)C3)c(F)c1 [Example 455, 5-((4-(2-fluoro-4-propylphenoxy)-3-oxo-1,3-dihydro-2H-pyrrolo[3,4-c]pyridin-2-yl)methyl)-N-methylpyridine-2-carboxamide]
46 nM | 91% | CNC(=O)c1ccc(CN2Cc3ccnc(Oc4ccc(C(F)(F)F)cc4F)c3C2=O)cn1 [Example 456, 5-((4-(2-fluoro-4-(trifluoromethyl)phenoxy)-3-oxo-1,3-dihydro-2H-pyrrolo[3,4-c]pyridin-2-yl)methyl)-N-methylpyridine-2-carboxamide]
8.6 nM | 91% | CNC(=O)c1ccc(CN2Cc3ccnc(Oc4ccc(CC(F)(F)F)cc4F)c3C2=O)cc1 [Example 457, 4-((4-(2-fluoro-4-(2,2,2-trifluoroethyl)phenoxy)-3-oxo-1,3-dihydro-2H-pyrrolo[3,4-c]pyridin-2-yl)methyl)-N-methylbenzamide]

The next lines start with the compound.

SMILES | EC50 | activity (%) at 10 μM
CCc1cc(F)c(Oc2nccc3c2C(=O)N(Cc2ccc(-c4ccn(C)n4)cc2)C3)c(F)c1 [Example 430, 4-(4-ethyl-2,6-difluorophenoxy)-2-(4-(1-methyl-1H-pyrazol-3-yl)benzyl)-1,2-dihydro-3H-pyrrolo[3,4-c]pyridin-3-one] | 17 nM | 110%
CNC(=O)c1ccc(CN2Cc3ccnc(Oc4ccc(C(F)(F)F)cc4F)c3C2=O)cc1 [Example 431, 4-((4-(2-fluoro-4-(trifluoromethyl)phenoxy)-3-oxo-1,3-dihydro-2H-pyrrolo[3,4-c]pyridin-2-yl)methyl)-N-methylbenzamide] | 6.8 nM | 103%
CCNC(=O)c1ccc(CN2Cc3ccnc(Oc4ccc(C(F)(F)F)cc4F)c3C2=O)cc1 [Example 432, N-ethyl-4-((4-(2-fluoro-4-(trifluoromethyl)phenoxy)-3-oxo-1,3-dihydro-2H-pyrrolo[3,4-c]pyridin-2-yl)methyl)benzamide] | 52 nM | 92%
CNC(=O)c1ccc(CN2Cc3ccnc(Oc4ccc(C)cc4F)c3C2=O)cc1 [Example 433, 4-((4-(2-fluoro-4-methylphenoxy)-3-oxo-1,3-dihydro-2H-pyrrolo[3,4-c]pyridin-2-yl)methyl)-N-methylbenzamide] | 10 nM | 101%
CCNC(=O)c1ccc(CN2Cc3ccnc(Oc4ccc(C)cc4F)c3C2=O)cc1 [Example 434, N-ethyl-4-((4-(2-fluoro-4-methylphenoxy)-3-oxo-1,3-dihydro-2H-pyrrolo[3,4-c]pyridin-2-yl)methyl)benzamide] | 26 nM | 95%
CCNC(=O)c1ccc(CN2Cc3ccnc(Oc4ccc(C(F)(F)F)cc4F)c3C2=O)cc1F [Example 436, N-ethyl-2-fluoro-4-((4-(2-fluoro-4-(trifluoromethyl)phenoxy)-3-oxo-1,3-dihydro-2H-pyrrolo[3,4-c]pyridin-2-yl)methyl)benzamide] | 41 nM | 106%
CNC(=O)c1ccc(CN2Cc3ccnc(Oc4ccc(Br)cc4F)c3C2=O)cc1F [Example 442, 4-((4-(4-bromo-2-fluorophenoxy)-3-oxo-1,3-dihydro-2H-pyrrolo[3,4-c]pyridin-2-yl)methyl)-2-fluoro-N-methylbenzamide] | 38 nM | 100%
CCc1ccc(Oc2nccc3c2C(=O)N(Cc2ccc(C(N)=O)c(F)c2)C3)c(F)c1 [Example 445, 4-((4-(4-ethyl-2-fluorophenoxy)-3-oxo-1,3-dihydro-2H-pyrrolo[3,4-c]pyridin-2-yl)methyl)-2-fluorobenzamide] | 28 nM | 100%
CNC(=O)c1ccc(CN2Cc3ccnc(Oc4ccc(C5CC5)cc4F)c3C2=O)cc1 [Example 447, 4-((4-(4-cyclopropyl-2-fluorophenoxy)-3-oxo-1,3-dihydro-2H-pyrrolo[3,4-c]pyridin-2-yl)methyl)-N-methylbenzamide] | 5.2 nM | 93%
CCc1ccc(Oc2nccc3c2C(=O)N(Cc2ccc(C(N)=O)cc2)C3)c(F)c1 [Example 449, 4-((4-(4-ethyl-2-fluorophenoxy)-3-oxo-1,3-dihydro-2H-pyrrolo[3,4-c]pyridin-2-yl)methyl)benzamide] | 9.3 nM | 99%
CCCc1ccc(Oc2nccc3c2C(=O)N(Cc2ccc(C(N)=O)cc2)C3)c(F)c1 [Example 450, 4-((4-(2-fluoro-4-propylphenoxy)-3-oxo-1,3-dihydro-2H-pyrrolo[3,4-c]pyridin-2-yl)methyl)benzamide] | 10 nM | 102%
CCCc1ccc(Oc2nccc3c2C(=O)N(Cc2ccc(C(=O)NC)cc2)C3)c(F)c1 [Example 451, 4-((4-(2-fluoro-4-propylphenoxy)-3-oxo-1,3-dihydro-2H-pyrrolo[3,4-c]pyridin-2-yl)methyl)-N-methylbenzamide] | 11 nM | 105%
CCc1ccc(Oc2nccc3c2C(=O)N(Cc2ccc(C(=O)NC)nc2)C3)c(F)c1 [Example 453, 5-((4-(4-ethyl-2-fluorophenoxy)-3-oxo-1,3-dihydro-2H-pyrrolo[3,4-c]pyridin-2-yl)methyl)-N-methylpyridine-2-carboxamide] | 56 nM | 97%
